# Source: patent US12398196B2, “Fused polypeptide with multifunctional activities and use thereof” (NANJING ANJI BIOLOGICAL TECHNOLOGY CO., LTD., priority 2019, dated 2025)
# Ends that are not written are not given here.
# Columns and labels:
# [1] = system: SD rats with bleomycin-induced pulmonary fibrosis; experiment: Bleomycin-induced pulmonary fibrosis animal model; type: in vivo
# Protocol: Source and strain: clean SD rats, provided by Comparative Medicine Center of Yangzhou University (laboratory animal production license: SCXK (Su) 2012-0004); Certification of Using of Laboratory Animal: SYXK (Su) 2012-0035).
# SD rats were anesthetized by intraperitoneal injection of 1 mL/100 g 4% chloral hydrate. After anesthesia, the rats were fixed and their necks were disinfected by using cotton with 75% alcohol. The skin of the rat neck was longitudinally cut with scissors, and the fascia and muscle were longitudinally bluntly torn with tweezers to expose the trachea. A syringe was inserted into the trachea to inject 5 mg/kg bleomycin, while a blank group was injected with an equal amount of normal saline. Then a rat plate was quickly erected and rotated, the rats' breathing was observed, the neck wound was sterilized after rotation and was sewn, and an amoxicillin anti-inflammatory drug was sprinkled on the suture. After the operation, the rats were put back into a dry and clean cage for resting, waiting was performed for awakening. The rats were awakened after about 1-2 hours, and then fed normally. On the 7th day after modeling, modeling group animals randomly fell into a model group, a Nintedanib positive drug group, polypeptide I, II, III and IV dosage groups, and a normal control group, and the groups were administered separately for an administration cycle of 14 days. Living situations of rats were observed every day and their weights were weighed. After administration for 14 days, the eyeballs were removed and blood was taken, the rats were dissected, and lungs were taken. The content of TGF-β1 in serum and the content of HYP in lung tissues were detected.
# [2] = system: SD rats with CCl4-induced hepatic fibrosis; experiment: CCl4-induced hepatic fibrosis animal model; type: in vivo; details: CCl4 8 weeks, polypeptides 6 mg/kg s.c. once a day, colchicine intragastric 5 times/week
# Protocol: Source and strain: SPF level, SD rats, provided by Shanghai Xipuer-Bikai laboratory Animal Co., Ltd. (laboratory animal license: SCXK (hu) 2013-0016)
# There were 10 rats in each group. Modeling was performed on the rats. Each group other than the blank group was injected with 40% CCl4 intraperitoneally twice a week, the first injection was performed at 3 mL/kg, and then administration was performed at 2 mL/kg. Administration was performed for 8 weeks, and a total of 16 injections were provided to induce hepatic fibrosis. After the intraperitoneal injection of CCl4 for the fourth time, polypeptide therapy was started on the next day, and administration was performed by subcutaneous injection once a day until the end of induction. After the intraperitoneal injection of CCl4 for the fourth time, colchicine was administrated on the next day at 200 μg/kg, 5 times a week, and intragastric administration therapy was implemented. After induction for 8 weeks, the administration was stopped. On the second day, the SD rats were dissected, blood was taken, and the liver tissue was taken and stored in a refrigerator at −80° C. for later use. The expressions of AST and ALT in serum and HYP in the rat liver tissue were detected.
# [3] = system: SD rats with renal fibrosis; experiment: Renal fibrosis model (ureter ligation); type: in vivo; details: 6 mg/kg s.c. twice a day, 14 days
# Protocol: Clean grade male SD rats, purchased from Nanjing Qinglong Mountain Animal Farm, and weighed 180-200 g at the time of purchase, 190-210 g at the beginning of modeling, and 180-200 g at the beginning of administration.
# A renal fibrosis animal model was established. SD rats were anesthetized with 4% chloral hydrate, injected with 1 mL/100 g intraperitoneally, fixed to an operation board, and sterilized in an operation area for later use. […] Muscular layers and abdominal walls were sewed layer by layer, the suture was disinfected with alcohol. After SD rats woke up, the rats were put into a cage for feeding. In the blank group, ureter was not ligated, and other steps were the same.
# Then, the animals fell into a blank group, a model group, and polypeptide administration groups, with 10 animals in each group, and the administration was started on the second day after the operation, and was performed for 14 days. After administration for 14 days, blood was taken and supernatant was taken to detect the content of TGF-β1 in serum.
# [4] = system: mice with myocardial fibrosis; experiment: Isoprenaline-induced myocardial fibrosis model; type: in vivo; details: BALB/c mice, isoprenaline 5 mg/kg 7 days; 12 mg/kg s.c. twice a day
# Protocol: 1. Experimental Mice: 10-Week-Old Male BALB/c Mice (with an Average Weight of 20 g).
# In the model group, the experimental mice were injected with isoprenaline (ISO) (5 mg/kg) subcutaneously on the back of the mice every day for 7 consecutive days, and the mice were injected with normal saline subcutaneously (200 μL/mouse) every day. In the blank group, normal saline was injected subcutaneously (200 μL/mouse) every day. While a model was made, polypeptide drugs were administrated for treatment by subcutaneous injection. After the 8th day, blood was taken and was centrifuged, the supernatant was taken, and the content of TGF-β1 in serum was detected.
# mice with skin fibrosis = experiment: Bleomycin-induced skin fibrosis model; type: in vivo, C57/BL black mice; details: C57/BL mice, bleomycin s.c. 28 days; 10 mg/kg s.c. twice a day
# Protocol: Male C57/BL black mice aged 6-8 weeks, purchased from Nanjing Qinglong Mountain Animal Farm. Bleomycin (10 μg/mL) was injected subcutaneously every day for 28 days to form skin fibrosis. During the modeling period, the administration groups were given polypeptide drugs twice a day for treatment. After modeling, the mice were killed on the next day, and the skin tissue of the mouse back was taken to detect the content of HYP in the skin tissue. [table]
# Streptococcus pneumoniae = experiment: Mouse pneumonia model, bacterial pneumonia; type: in vivo, BALB/C mice; design: unit not given here; details: nasal drip, average values + standard deviation
# From the text: (§1) A mouse pneumonia model was successfully established by using a nasal drip method. BALB/C mice with a body weight of 18-24 g were selected, and then anesthetized with ether on day 0, day 1 and day 2, respectively, prepared Streptococcus pneumoniae bacteria solution, adenovirus concentrated solution, Mycoplasma pneumoniae, Chlamydia pneumoniae, protozoa and pneumonia fungi were slowly dropped into the nasal cavity of the mice, so that the bacteria solutions entered the trachea and bronchi, and the bacteria solutions were prevented from flowing into the esophagus during the operation to avoid inactivation of the bacteria solutions, so that the mouse pneumonia model was established. After the model was successfully established, the polypeptide according to the present disclosure was administered, as shown in FIG. 9 and Table 7. […] The experimental results are represented on the basis of average values+standard deviation.
# adenovirus = experiment: Mouse pneumonia model, viral pneumonia; type: in vivo, BALB/C mice; design: unit not given here; details: nasal drip, average values + standard deviation
# From the text: as §1
# Mycoplasma pneumoniae = experiment: Mouse pneumonia model, mycoplasma pneumonia; type: in vivo, BALB/C mice; design: unit not given here; details: nasal drip, average values + standard deviation
# From the text: as §1
# Chlamydia pneumoniae = experiment: Mouse pneumonia model, chlamydia pneumonia; type: in vivo, BALB/C mice; design: unit not given here; details: nasal drip, average values + standard deviation
# From the text: as §1
# protozoa = experiment: Mouse pneumonia model, protozoal pneumonia; type: in vivo, BALB/C mice; design: unit not given here; details: nasal drip, average values + standard deviation
# From the text: as §1
# pneumonia fungi = experiment: Mouse pneumonia model, fungal pneumonia; type: in vivo, BALB/C mice; design: unit not given here; details: nasal drip, average values + standard deviation
# From the text: as §1
# [5] = system: multiple pulmonary infections; experiment: Mouse pneumonia model, pneumonia caused by pulmonary infections; type: in vivo, BALB/C mice; design: unit not given here; details: nasal drip, average values + standard deviation
# From the text: as §1
# [6] = bleomycin-induced pulmonary fibrosis, polypeptides 10 mg/kg s.c. twice a day, Nintedanib 25 mg/kg intragastric once a day, 14 days
sequence,measurement,setting,value
PRCYRGEGGGGIVRRADRAAVPGGGGRGD [Polypeptide II],Survival rate (%),"[1]; bleomycin 5 mg/kg intratracheal, polypeptides 10 mg/kg subcutaneous twice a day for 14 days, positive drug Nintedanib intragastric once a day, model group 57.1%",78.6%
same,reduction of HYP in lung tissues compared with the positive drug,"[1]; bleomycin-induced pulmonary fibrosis, comparison with Nintedanib",better effects than the positive drug
same,"content of HYP in lung tissues, difference from model group",[1]; [6],highly significantly different from the model group (*** P<0.001)
same,"content of TGF-β1 in serum, difference from model group",[1]; [6],highly significantly different from the model group (*** P<0.001)
same,"content of AST in serum, difference from model group",[2],highly significantly different from the model group (*** P<0.001)
same,"content of HYP in the liver tissue, difference from model group",[2],highly significantly different from the model group (*** P<0.001)
same,"content of TGF-β1 in serum, difference from model group",[3],highly significantly different from the model group (*** P<0.001)
same,"content of TGF-β1 in serum, difference from model group",[4],highly significantly different from the model group (*P<0.05)
same,"content of HYP in the skin tissue, difference from model group",mice with skin fibrosis,highly significantly different from the model group (*P<0.05)
same,Inhibitory effect on pulmonary infections: Bacterial pneumonia,Streptococcus pneumoniae,41.25 ± 9.48
same,Inhibitory effect on pulmonary infections: Viral pneumonia,adenovirus,50.27 ± 8.08
same,Inhibitory effect on pulmonary infections: Mycoplasma pneumonia,Mycoplasma pneumoniae,45.69 ± 5.72
same,Inhibitory effect on pulmonary infections: Chlamydia pneumonia,Chlamydia pneumoniae,45.81 ± 5.21
same,Inhibitory effect on pulmonary infections: Protozoal pneumonia,protozoa,63.60 ± 6.16
same,Inhibitory effect on pulmonary infections: Fungal pneumonia,pneumonia fungi,60.32 ± 3.07
same,Inhibitory effect on pulmonary infections: Pneumonia caused by pulmonary infections,[5],63.15 ± 5.87
